Laboratory results from ChEMBL document CHEMBL1201862, “PubChem BioAssay data set” (2004).
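Growth conditions: 96-well plates. Treatment: test compound, 48 hours, 5 concentrations. Analysis: linear interpolation between bracketing concentrations; unreached endpoints set to highest concentration. At the GI50, growth is halved.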 Calls of active or inactive are those of the source. Rule as the data show it: active = GI50 up to about 1.1 µM and inactive = higher.

How the values were obtained:
Assay in all cases: DTP human tumour cell line panel, 48 h
ACHN = test system: ACHN
COLO 205 = test system: COLO 205
DU-145 = test system: DU-145
HL-60 = test system: HL-60
HOP-92 = test system: HOP-92
Hs-578T = test system: Hs-578T
MDA-MB-231 = test system: MDA-MB-231
MDA-MB-435 = test system: MDA-MB-435
NCI-H226 = test system: NCI-H226
NCI-H522 = test system: NCI-H522
OVCAR-5 = test system: OVCAR-5
SF-268 = test system: SF-268
SR = test system: SR
T47D = test system: T47D
A498 = test system: A498
MDA-N = test system: MDA-N
BT-549 = test system: BT-549

Structure (SMILES) | GI50 (ACHN) | GI50 (COLO 205) | GI50 (DU-145) | GI50 (HL-60) | GI50 (HOP-92) | GI50 (Hs-578T) | GI50 (MDA-MB-231) | GI50 (MDA-MB-435) | GI50 (NCI-H226) | GI50 (NCI-H522) | GI50 (OVCAR-5) | GI50 (SF-268) | GI50 (SR) | GI50 (T47D) | GI50 (A498) | GI50 (MDA-N) | GI50 (BT-549)
COc1ccc(OC)c(SC(CC(=O)c2ccccc2)c2ccccc2)c1 (stereo not given) | 19.6 µM (inactive) | 19.5 µM (inactive) | 7.85 µM (inactive) | > 100 µM (inactive) | 33.7 µM (inactive) | 28.4 µM (inactive) | 7.45 µM (inactive) | 13 µM (inactive) | 14.3 µM (inactive) | 14.6 µM (inactive) | 18.4 µM (inactive) | 19.1 µM (inactive) | 7.6 µM (inactive) | 10.1 µM (inactive) | – | – | –
Cc1ccc2oc3c(ccc(=O)n3C)c(=O)c2c1 | > 100 µM (inactive) | > 100 µM (inactive) | > 100 µM (inactive) | > 100 µM (inactive) | > 100 µM (inactive) | > 100 µM (inactive) | > 100 µM (inactive) | > 100 µM (inactive) | > 100 µM (inactive) | > 100 µM (inactive) | > 100 µM (inactive) | > 100 µM (inactive) | > 100 µM (inactive) | > 100 µM (inactive) | > 100 µM (inactive) | > 100 µM (inactive) | –
C1CC2=C(C1)[Se]C(=C1Sc3nsnc3S1)[Se]2 | > 100 µM (inactive) | > 100 µM (inactive) | > 100 µM (inactive) | – | > 100 µM (inactive) | > 100 µM (inactive) | > 100 µM (inactive) | 39 µM (inactive) | > 100 µM (inactive) | > 100 µM (inactive) | > 100 µM (inactive) | > 100 µM (inactive) | – | > 100 µM (inactive) | – | 21.7 µM (inactive) | > 100 µM (inactive)
COC(=O)c1ccccc1/N=C(/NC1CCCCCC1)NS(=O)(=O)c1ccc(C)cc1 | > 100 µM (inactive) | > 100 µM (inactive) | 58.6 µM (inactive) | 96.2 µM (inactive) | 89.7 µM (inactive) | > 100 µM (inactive) | 76.9 µM (inactive) | > 100 µM (inactive) | > 100 µM (inactive) | 77.4 µM (inactive) | > 100 µM (inactive) | > 100 µM (inactive) | > 100 µM (inactive) | > 100 µM (inactive) | > 100 µM (inactive) | > 100 µM (inactive) | > 100 µM (inactive)
COC(=O)[C@@H]1C=C[C@H](NC(C)=O)C1 | – | > 100 µM (inactive) | > 100 µM (inactive) | – | > 100 µM (inactive) | > 100 µM (inactive) | > 100 µM (inactive) | > 100 µM (inactive) | > 100 µM (inactive) | – | > 100 µM (inactive) | – | > 100 µM (inactive) | > 100 µM (inactive) | > 100 µM (inactive) | > 100 µM (inactive) | > 100 µM (inactive)
COc1nc2cccc(C(O)c3ccccc3)c2nc1-c1ccccc1 (stereo not given) | 5.83 µM (inactive) | 4.68 µM (inactive) | 5.93 µM (inactive) | 3.18 µM (inactive) | 6.92 µM (inactive) | 2.28 µM (inactive) | 8.41 µM (inactive) | 1.78 µM (inactive) | 3.8 µM (inactive) | 8.95 µM (inactive) | 11 µM (inactive) | 9.06 µM (inactive) | 1.75 µM (inactive) | 8.57 µM (inactive) | 2.81 µM (inactive) | 1.55 µM (inactive) | 13.9 µM (inactive)
Cc1cc(S(=O)(=O)Nc2nc(Nc3ccccc3)n[nH]2)c(SSc2cc(Cl)c(C)cc2S(=O)(=O)Nc2nc(Nc3ccccc3)n[nH]2)cc1Cl | > 100 µM (inactive) | > 100 µM (inactive) | > 100 µM (inactive) | 25.1 µM (inactive) | – | 86.1 µM (inactive) | 32.2 µM (inactive) | > 100 µM (inactive) | – | – | > 100 µM (inactive) | 86.7 µM (inactive) | 40.2 µM (inactive) | 67.5 µM (inactive) | – | > 100 µM (inactive) | > 100 µM (inactive)
NNC(=O)CCc1ccc2ccc3ccccc3c2c1 | > 100 µM (inactive) | > 100 µM (inactive) | > 100 µM (inactive) | 0.312 µM (active) | 58.7 µM (inactive) | 57.7 µM (inactive) | > 100 µM (inactive) | > 100 µM (inactive) | 15.9 µM (inactive) | 28.8 µM (inactive) | > 100 µM (inactive) | 62.2 µM (inactive) | > 100 µM (inactive) | 70.6 µM (inactive) | 49.2 µM (inactive) | > 100 µM (inactive) | 55.8 µM (inactive)
NC(CCCCCCCCCCP(=O)(O)O)C(=O)O (stereo not given) | > 100 µM (inactive) | > 100 µM (inactive) | > 100 µM (inactive) | > 100 µM (inactive) | > 100 µM (inactive) | > 100 µM (inactive) | > 100 µM (inactive) | > 100 µM (inactive) | – | 85.5 µM (inactive) | > 100 µM (inactive) | > 10 µM (inactive) | > 100 µM (inactive) | > 100 µM (inactive) | – | > 100 µM (inactive) | –
